pEC50: −log10 of the molar value. Read-outs that look alike come from different tables or passages of the source.
Columns and labels:
[1] = test system: primary postnatal (P0) cortical cells; assay: Neurite outgrowth assay (Aβ1-42-induced reduction of neurite outgrowth, high content microscopy); type: cell-based, rat; conditions: for Emax: Rattus norvegicus, read-out: Maximum Effect (of % 300 nM Dimebolin)
Method: In addition to PC12 cells, other cellular model systems may also be used. Rat cortical cells were cultured and prepared for high content microscopy analysis as previously described (Hu, M.; Schurdak, M. E.; et al. High content screen microscopy analysis of Aβ1-42-induced neurite outgrowth reduction in rat primary cortical neurons: Neuroprotective effects of α7 neuronal nicotinic acetylcholine receptor ligands. Brain Res. 2007, 1151, 227-235.). Briefly, cortical cell cultures were plated at density of 5×10^5 cells/mL onto poly-D-lysine coated 96-well plates and maintained in a cell incubator at 37° C. with 5% CO2. Experiments were performed using 6-7 day-old cortical cell cultures by treating with test compounds. In some experiments, the effect of test compounds on reversing Aβ toxicity were also measured (Hu, M.; Schurdak, M. E.; et al. High content screen microscopy analysis of Aβ1-42-induced neurite outgrowth reduction in rat primary cortical neurons: Neuroprotective effects of α7 neuronal nicotinic acetylcholine receptor ligands. Brain Res. 2007, 1151, 227-235.). For assessment of neuroprotective effects, cells were first pretreated with test compounds for about 5 hours. Medium was then replaced with the medium containing freshly prepared about 5 μM Aβ1-42 peptide in the absence or presence of the test compounds for 3 days. The untreated group contained the same percentage of vehicle (DMSO) as in the treatment groups. Cells were fixed with approximately 4% paraformaldehyde containing 0.5% Hoechst 33342 for about 15 minutes, followed by three washes using PBS (pH 7.4) and blocked with 10% donkey serum in PBS for 1 hour at room temperature. The cells were then incubated overnight at about 4° C. with mouse anti-tubulin monoclonal antibody (1:100) for staining neurons and rabbit anti-GFAP (1:1000) for staining glia. In the next day, cells were incubated with FITC-labeled anti-mouse and TRITC-labeled anti-rabbit antibodies (1:1000) for about 1 hour at room temperature. After fixing and staining the cells, nuclei (360/400 nm excitation and 465/300 nm emission filters), neuron (475/350 nm excitation and 535/400 nm emission filters) and glial cell (535 nm excitation and 610 nm emission filters) images were collected using the ImageExpress Micro automatic fluorescent microscopy system (Molecular Devices, Sunnyvale, Calif.) employing a Nikon 10× Plan Fluor objective and Cool Snap HQ CCD camera. The Neurite Outgrowth module in the MetaMorph Imaging software was used to automatically count total cell number, number of neuron cells, and the extent of neurite outgrowth.
In the graph of FIG. 2, 100% response was the response observed for untreated cells. Exposure to Aβ1-42 produced a decrease in neurite outgrowth. Treatment of cells with compounds prior to and concomitantly with Aβ1-42 gave a neuroprotective effect with neurite outgrowth maintained or enhanced relative to untreated cells.

[2] = test system: SK-N-SH human neuroblastoma cells; assay: Serum deprivation/JC-1 mitochondrial membrane potential (MMP) assay; type: cell-based; conditions: for Emax: SK-N-SH, read-out: JC-1 max %; for pEC50: SK-N-SH cells, serum deprivation ~18 hours, JC-1 ratio normalized to peak value for 10 μM dimebolin, single curve fit to mean data of n=2-3, read-out: EC50
Summary of the method: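 Cells were serum-deprived ~18 h in MEM with or without compound (DMSO ≤1%), then stained with JC-1 for 35 min at 37° C. The red/green fluorescence ratio (560/595 vs 485/535 nm) was normalized to the peak response of 10 μM dimebolin. EC50 came from one curve fit to mean data (n=2-3, duplicates).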

[3] = maximum response relative to 300 nM dimebolin, at the concentration given
[4] = Homo sapiens, percent maximal intensity in JC-1 ratio normalized to 10 μM dimebolin

Q: Which results are given for `Fc1ccc2c(c1)c1c(n2-c2ccc3ncccc3c2)C2CCN(CC2)C1` [Example 228, 9-fluoro-6-quinolin-6-yl-3,4,5,6-tetrahydro-1H-2,5-ethanoazepino[4,3-b]indole]?
A: Emax [1, 3]: 141%; Emax [2, 4]: 263%; pEC50 ([2]; Homo sapiens): 5.76

Q: What does the source list for `Cc1ccc2c(c1)c1c(n2CCc2ccc(C)nc2)C[C@H]2CC[C@@H]1N2` (single isomer, unassigned) [Example 6]?
A: Emax [1, 3]: 124%; Emax [2, 4]: 163%; pEC50 ([2]; Homo sapiens): 5.24

Q: Which Emax [1, 3] does the source give for `Cc1ccc2c(c1)c1c(n2CCc2cnc(C)nc2)C[C@H]2CC[C@@H]1N2C` [Example 31, (7R,10S)-2,11-dimethyl-5-[2-(2-methylpyrimidin-5-yl)ethyl]-5,6,7,8,9,10-hexahydro-7,10-epiminocyclohepta[b]indole] here?
A: 96%

Q: What about the Emax [2, 4] of the same compound?
A: 97%

Q: What about the pEC50 ([2]; Homo sapiens) of the same compound?
A: 5.22

Q: Which Emax [1, 3] does the source give for `O=c1ccnc2ccc(-n3c4c(c5ccccc53)CN3CCC4CC3)cn12` [Example 277, 7-(1,3,4,5-tetrahydro-6H-2,5-ethanoazepino[4,3-b]indol-6-yl)-4H-pyrido[1,2-a]pyrimidin-4-one] here?
A: 91%

Q: What about the Emax [2, 4] of the same compound?
A: 190%

Q: What about the pEC50 ([2]; Homo sapiens) of the same compound?
A: 5.62

Q: Which results are given for `c1ccc2c(c1)c1c(n2-c2ccc3ccncc3c2)C[C@@H]2CC[C@H]1N2` (single isomer, unassigned) [Example 280]?
A: Emax [1, 3]: 107%; Emax [2, 4]: 201%; pEC50 ([2]; Homo sapiens): 5.28

Q: `Cc1ccc2cc(-n3c4c(c5cc(F)ccc53)CN3CCC4CC3)ccc2n1` [Example 229, 9-fluoro-6-(2-methylquinolin-6-yl)-3,4,5,6-tetrahydro-1H-2,5-ethanoazepino[4,3-b]indole] was tested. Which Emax [1, 3] did it give?
A: 165%

Q: And the Emax [2, 4]?
A: 282%

Q: What about the pEC50 ([2]; Homo sapiens) of the same compound?
A: 6.15

Q: Which “Maximum Effect (of % 300 nM Dimebolin)” value [1, 3] does the source give for `c1cnc2ccc(-n3c4c(c5ccccc53)[C@@H]3CC[C@H](C4)N3)cc2c1` [Example 282, (7R,10S)-5-(quinolin-6-yl)-5,6,7,8,9,1-hexahydro-7,10-epiminocyclohepta[b]indole] here?
A: 115%

Q: What about the “Concentration (nM) at which the maximum effect was noted” value ([1]; test compound concentration giving the maximum response) of the same compound?
A: 30 nM

Q: And the pEC50 [2]?
A: 5.49

Q: What about the JC-1 max % ([2]; percent maximal intensity in JC-1 ratio normalized to 10 μM dimebolin) of the same compound?
A: 228%

Q: Which results are given for `c1cnc2ccc(-n3c4c(c5ccccc53)[C@H]3CC[C@@H](C4)N3)cc2c1` (single isomer, unassigned) [Example 278]?
A: Emax [1, 3]: 96%; Emax [2, 4]: 189%; pEC50 ([2]; Homo sapiens): 5.57

Q: Which results are given for `O=c1cccnn1-c1ccc(Cn2c3c(c4cc(F)ccc42)CN2CCC3CC2)cn1` [Example 248, 2-{5-[(9-fluoro-1,3,4,5-tetrahydro-6H-2,5-ethanoazepino[4,3-b]indol-6-yl)methyl]pyridin-2-yl}pyridazin-3(2H)-one]?
A: Emax [1, 3]: 109%; Emax [2, 4]: 110%; pEC50 ([2]; Homo sapiens): 5.28

Q: For `Cc1ccc2c(c1)c1c(n2CCc2cccc(C(F)(F)F)c2)CC2CCC1N2C` (stereo not shown) [Example 50, 2,11-dimethyl-5-{2-[3-(trifluoromethyl)phenyl]ethyl}-5,6,7,8,9,10-hexahydro-7,10-epiminocyclohepta[b]indole], which Emax [1, 3] is on record?
A: 101%

Q: And the Emax [2, 4]?
A: 175%

Q: What about the pEC50 ([2]; Homo sapiens) of the same compound?
A: 5.19

Q: Which Emax [1, 3] does the source give for `O=c1cccnn1-c1ccc(-n2c3c(c4cc(F)ccc42)CN2CCC3CC2)nc1` [Example 262, 2-[6-(9-fluoro-1,3,4,5-tetrahydro-6H-2,5-ethanoazepino[4,3-b]indol-6-yl)pyridin-3-yl]pyridazin-3(2H)-one] here?
A: 99%

Q: And the Emax [2, 4]?
A: 182%

Q: And the pEC50 ([2]; Homo sapiens)?
A: 5.06
